Measured values: PMC4923583, “A Phase I/II Clinical Trial of Belinostat (PXD101) in Combination with Doxorubicin in Patients with Soft Tissue Sarcomas” (Sarcoma, 2016)
Values joined by “and” are separate entries in the source; they are usually repeats but may differ in a detail not shown here. Equal values may be shown once.

What was measured:
[1] = test system: patients with STS and other solid tumours; assay: Dose escalation: maximum tolerated dose (MTD) and dose limiting toxicities (DLT); assay type: in vivo; details: highest tested dose level (cohort 4)
Description: Belinostat was administered as a 30-minute intravenous infusion every 24 hours on days 1–5 and on day 5 in combination with doxorubicin, in a 3-week schedule, and doxorubicin was given after belinostat. The dose escalation schedule was as follows: belinostat 600 mg/m^2 and 50 mg/m^2 doxorubicin (cohort 1), 600 mg/m^2 and 75 mg/m^2 doxorubicin (cohort 2), 800 mg/m^2 and 75 mg/m^2 doxorubicin (cohort 3), and 1000 mg/m^2 and 75 mg/m^2 doxorubicin (cohort 4).
Patients who achieved clinical benefit from the treatment (objective response or stable disease) could continue belinostat treatment beyond cycle 6. If the maximum cumulative dose of doxorubicin 450 mg/m^2 was reached, the treatment would continue with belinostat as monotherapy. In the phase I part, at least 3 patients were treated at each dose level. If a DLT was found in one of 3 patients, the cohort was expanded to a total of 6 patients.
Adverse events were graded using the NCI common terminology criteria for adverse events (NCI-CTCAE) version 3.0. […]

[2] = in vivo
Description: (§1) The following PK parameters were determined: elimination half-life (t 1/2), maximum concentration (C max), time to maximum concentration (t max), area under the curve (AUC0−tlast and AUC∞), elimination rate constant (λz), and volume of distribution (V c and V ss). Blood sampling for belinostat alone was performed on cycle 1 day 4 (before treatment and 0 min, 5 min, 15 min, 30 min, 1 h, 2 h, 2 h 15 min, 2 h 30 min, 3 h, 4 h, 6 h, 8 h, and 24 h after treatment).

[3] = test system: soft tissue sarcoma; details: single-agent doxorubicin, ref [6], cited from earlier work
[4] = Pharmacokinetic analyses, plasma, cycle 1 day 4 and day 5
Description: as §1

[5] = test system: solid tumours and haematological neoplasms; design: method as in PMID 18245542, PMID 18510700; details: ref [10], [11], cited from earlier work
[6] = test system: human tumour xenografts; details: cited from earlier work

COc1cccc2c1C(=O)c1c(O)c3c(c(O)c1C2=O)C[C@@](O)(C(=O)CO)C[C@@H]3O[C@H]1C[C@H](N)[C@H](O)[C@H](C)O1 [doxorubicin]
MTD of doxorubicin in combination with belinostat ([1]; day 5, 3-week schedule): 75 mg/m^2 | Effect of coadministration of belinostat on doxorubicin exposure [2]: no effect | Neutropenia (all grades) ([3]; G-CSF allowed): 37% | Response rate [3]: 14% | half-life ([4]; human, plasma, intravenous): 7.6 to 10.8 h | Tmax ([4]; human, plasma, intravenous, 75 mg/m2, Median t max, doxorubicin 50 or 75 mg/m^2, day 5, range across groups): 0.24 to 0.5 h

O=C(/C=C/c1cccc(S(=O)(=O)Nc2ccccc2)c1)NO [belinostat]
MTD of belinostat in combination with doxorubicin ([1]; 30-minute IV infusion days 1–5, 3-week schedule, doxorubicin on day 5): 1000 mg/m^2/d | Maximum tolerated dose (MTD), monotherapy ([5]; 5 consecutive days repeated in a 3-week schedule): 1000 mg/m^2/d | Duration of prolonged stable disease (SD) in 2 STS patients ([5]; belinostat monotherapy, one value per patient): 7 months and 14 months | Toxicity to the host mice ([6]; mouse, in vivo): without apparent toxicity | Growth of human tumour xenografts ([6]; ref [9]): inhibits growth | clearance ([4]; 600 mg/m^2 Bel + 50 mg/m^2 doxorubicin, Day 5 (with doxorubicin), N: 1, individual parameter presented): 1770 mL/min | t last ([4]; Median (min–max), 600 mg/m^2 Bel + 50 mg/m^2 doxorubicin, Day 4 (Bel alone), N = 3): 24.5 (22.4–24.6) h | t last ([4]; Median (min–max), 600 mg/m^2 Bel + 50 mg/m^2 doxorubicin, Day 5 (with doxorubicin), N = 3): 17.0 (17.0–20.1) h | t last ([4]; Median (min–max), 600 mg/m^2 Bel + 75 mg/m^2 doxorubicin, Day 4 (Bel alone), N = 7): 24.0 (8.55–24.5) h | t last ([4]; Median (min–max), 600 mg/m^2 Bel + 75 mg/m^2 doxorubicin, Day 5 (with doxorubicin), N = 6): 24.5 (16.2–24.7) h | t last ([4]; Median (min–max), 800 mg/m^2 Bel + 75 mg/m^2 doxorubicin, Day 4 (Bel alone), N = 8): 23.7 (8.47–24.6) h | t last ([4]; Median (min–max), 800 mg/m^2 Bel + 75 mg/m^2 doxorubicin, Day 5 (with doxorubicin), N = 6): 15.1 (8.50–24.6) h | t last ([4]; Median (min–max), 1000 mg/m^2 Bel + 75 mg/m^2 doxorubicin, Day 4 (Bel alone), N = 21): 8.65 (1.05–24.0) h | t last ([4]; Median (min–max), 1000 mg/m^2 Bel + 75 mg/m^2 doxorubicin, Day 5 (with doxorubicin), N = 19): 8.72 (8.50–24.7) h | Dose proportionality of pharmacokinetics ([4]; belinostat 600–1000 mg/m^2): dose-proportional pharmacokinetics | Effect of coadministration of doxorubicin on belinostat exposure ([4]; day 5 vs day 4): no evidence that coadministration of doxorubicin had any effect | AUC(0-t) ([4]; human, plasma, intravenous, 600 mg/m^2, AUC0–tlast, 600 mg/m^2 Bel + 50 mg/m^2 doxorubicin, Day 4 (Bel alone), N = 3): 10.9 µg·h/mL | AUC(0-t) ([4]; human, plasma, intravenous, 600 mg/m^2, AUC0–tlast, 600 mg/m^2 Bel + 75 mg/m^2 doxorubicin, Day 4 (Bel alone), N = 7): 9.67 µg·h/mL | Cmax ([4]; human, plasma, intravenous, 600 mg/m^2, C max, 600 mg/m^2 Bel + 50 mg/m^2 doxorubicin, Day 4 (Bel alone), N = 3): 21.1 µg/mL | Cmax ([4]; human, plasma, intravenous, 600 mg/m^2, C max, 600 mg/m^2 Bel + 75 mg/m^2 doxorubicin, Day 4 (Bel alone), N = 7): 16.8 µg/mL | clearance ([4]; human, plasma, intravenous, 600 mg/m^2, CL, 600 mg/m^2 Bel + 75 mg/m^2 doxorubicin, Day 4 (Bel alone), N: 3): 2150 mL/min | Vd ([4]; human, plasma, intravenous, 600 mg/m^2, V ss, 600 mg/m^2 Bel + 75 mg/m^2 doxorubicin, Day 4 (Bel alone), N: 3): 149 L | half-life ([4]; human, plasma, intravenous, 600 mg/m^2, t 1/2, 600 mg/m^2 Bel + 75 mg/m^2 doxorubicin, Day 4 (Bel alone), N: 3): 3.77 h | Tmax ([4]; human, plasma, intravenous, 600 mg/m^2, t max, Median (min–max), 600 mg/m^2 Bel + 50 mg/m^2 doxorubicin, Day 4 (Bel alone), N = 3): 0.533 h | Tmax ([4]; human, plasma, intravenous, 600 mg/m^2, t max, Median (min–max), 600 mg/m^2 Bel + 75 mg/m^2 doxorubicin, Day 4 (Bel alone), N = 7): 0.567 h | AUC(0-t) ([4]; human, plasma, intravenous, 800 mg/m^2, AUC0–tlast, 800 mg/m^2 Bel + 75 mg/m^2 doxorubicin, Day 4 (Bel alone), N = 8): 12.2 µg·h/mL | Cmax ([4]; human, plasma, intravenous, 800 mg/m^2, C max, 800 mg/m^2 Bel + 75 mg/m^2 doxorubicin, Day 4 (Bel alone), N = 8): 21.4 µg/mL | clearance ([4]; human, plasma, intravenous, 800 mg/m^2, CL, 800 mg/m^2 Bel + 75 mg/m^2 doxorubicin, Day 4 (Bel alone), N: 4): 2120 mL/min | Vd ([4]; human, plasma, intravenous, 800 mg/m^2, V ss, 800 mg/m^2 Bel + 75 mg/m^2 doxorubicin, Day 4 (Bel alone), N: 4): 107 L | half-life ([4]; human, plasma, intravenous, 800 mg/m^2, t 1/2, 800 mg/m^2 Bel + 75 mg/m^2 doxorubicin, Day 4 (Bel alone), N: 4): 1.91 h | Tmax ([4]; human, plasma, intravenous, 800 mg/m^2, t max, Median (min–max), 800 mg/m^2 Bel + 75 mg/m^2 doxorubicin, Day 4 (Bel alone), N = 8): 0.533 h | half-life ([4]; human, plasma, intravenous, 1000 mg/m2, Geometric mean apparent elimination half-life (t 1/2), belinostat 600, 800 and 1000 mg/m^2, day 4 and day 5, range across groups): 1.9 to 4.8 h | AUC(0-t) ([4]; human, plasma, intravenous, 1000 mg/m^2, AUC0–tlast, 1000 mg/m^2 Bel + 75 mg/m^2 doxorubicin, Day 4 (Bel alone), N = 21): 23.1 µg·h/mL | Cmax ([4]; human, plasma, intravenous, 1000 mg/m^2, C max, 1000 mg/m^2 Bel + 75 mg/m^2 doxorubicin, Day 4 (Bel alone), N = 21): 41.1 µg/mL | clearance ([4]; human, plasma, intravenous, 1000 mg/m^2, CL, 1000 mg/m^2 Bel + 75 mg/m^2 doxorubicin, Day 4 (Bel alone), N: 18): 1360 mL/min | Vd ([4]; human, plasma, intravenous, 1000 mg/m^2, V ss, 1000 mg/m^2 Bel + 75 mg/m^2 doxorubicin, Day 4 (Bel alone), N: 18): 51 L | half-life ([4]; human, plasma, intravenous, 1000 mg/m^2, t 1/2, 1000 mg/m^2 Bel + 75 mg/m^2 doxorubicin, Day 4 (Bel alone), N: 18): 1.48 h | Tmax ([4]; human, plasma, intravenous, 1000 mg/m^2, t max, Median (min–max), 1000 mg/m^2 Bel + 75 mg/m^2 doxorubicin, Day 4 (Bel alone), N = 21): 0.617 h | AUC(0-t) ([4]; human, plasma, intravenous, AUC0–tlast, 600 mg/m^2 Bel + 50 mg/m^2 doxorubicin, Day 5 (with doxorubicin), N = 3): 10.4 µg·h/mL | AUC(0-t) ([4]; human, plasma, intravenous, AUC0–tlast, 600 mg/m^2 Bel + 75 mg/m^2 doxorubicin, Day 5 (with doxorubicin), N = 6): 10.4 µg·h/mL | AUC(0-t) ([4]; human, plasma, intravenous, AUC0–tlast, 800 mg/m^2 Bel + 75 mg/m^2 doxorubicin, Day 5 (with doxorubicin), N = 6): 14.6 µg·h/mL | AUC(0-t) ([4]; human, plasma, intravenous, AUC0–tlast, 1000 mg/m^2 Bel + 75 mg/m^2 doxorubicin, Day 5 (with doxorubicin), N = 19): 22.1 µg·h/mL | Cmax ([4]; human, plasma, intravenous, C max, 600 mg/m^2 Bel + 50 mg/m^2 doxorubicin, Day 5 (with doxorubicin), N = 3): 18.3 µg/mL | Cmax ([4]; human, plasma, intravenous, C max, 600 mg/m^2 Bel + 75 mg/m^2 doxorubicin, Day 5 (with doxorubicin), N = 6): 17.4 µg/mL | Cmax ([4]; human, plasma, intravenous, C max, 800 mg/m^2 Bel + 75 mg/m^2 doxorubicin, Day 5 (with doxorubicin), N = 6): 26.4 µg/mL | Cmax ([4]; human, plasma, intravenous, C max, 1000 mg/m^2 Bel + 75 mg/m^2 doxorubicin, Day 5 (with doxorubicin), N = 19): 37 µg/mL | clearance ([4]; human, plasma, intravenous, CL, 600 mg/m^2 Bel + 75 mg/m^2 doxorubicin, Day 5 (with doxorubicin), N: 3): 1850 mL/min | clearance ([4]; human, plasma, intravenous, CL, 800 mg/m^2 Bel + 75 mg/m^2 doxorubicin, Day 5 (with doxorubicin), N: 4): 1520 mL/min | clearance ([4]; human, plasma, intravenous, CL, 1000 mg/m^2 Bel + 75 mg/m^2 doxorubicin, Day 5 (with doxorubicin), N = 19): 1420 mL/min | Vd ([4]; human, plasma, intravenous, V ss, 600 mg/m^2 Bel + 50 mg/m^2 doxorubicin, Day 5 (with doxorubicin), N: 1, individual parameter presented): 72.8 L | Vd ([4]; human, plasma, intravenous, V ss, 600 mg/m^2 Bel + 75 mg/m^2 doxorubicin, Day 5 (with doxorubicin), N: 3): 90.8 L | Vd ([4]; human, plasma, intravenous, V ss, 800 mg/m^2 Bel + 75 mg/m^2 doxorubicin, Day 5 (with doxorubicin), N: 4): 58.3 L | Vd ([4]; human, plasma, intravenous, V ss, 1000 mg/m^2 Bel + 75 mg/m^2 doxorubicin, Day 5 (with doxorubicin), N = 19): 57.6 L | half-life ([4]; human, plasma, intravenous, t 1/2, 600 mg/m^2 Bel + 50 mg/m^2 doxorubicin, Day 5 (with doxorubicin), N: 1, individual parameter presented): 2.53 h | half-life ([4]; human, plasma, intravenous, t 1/2, 600 mg/m^2 Bel + 75 mg/m^2 doxorubicin, Day 5 (with doxorubicin), N: 3): 4.83 h | half-life ([4]; human, plasma, intravenous, t 1/2, 800 mg/m^2 Bel + 75 mg/m^2 doxorubicin, Day 5 (with doxorubicin), N: 4): 2.14 h | half-life ([4]; human, plasma, intravenous, t 1/2, 1000 mg/m^2 Bel + 75 mg/m^2 doxorubicin, Day 5 (with doxorubicin), N = 19): 2.13 h | Tmax ([4]; human, plasma, intravenous, t max, Median (min–max), 600 mg/m^2 Bel + 50 mg/m^2 doxorubicin, Day 5 (with doxorubicin), N = 3): 0.567 h | Tmax ([4]; human, plasma, intravenous, t max, Median (min–max), 600 mg/m^2 Bel + 75 mg/m^2 doxorubicin, Day 5 (with doxorubicin), N = 6): 0.517 h | Tmax ([4]; human, plasma, intravenous, t max, Median (min–max), 800 mg/m^2 Bel + 75 mg/m^2 doxorubicin, Day 5 (with doxorubicin), N = 6): 0.533 h | Tmax ([4]; human, plasma, intravenous, t max, Median (min–max), 1000 mg/m^2 Bel + 75 mg/m^2 doxorubicin, Day 5 (with doxorubicin), N = 19): 0.633 h
